The results in this text go back to patent publication US8629116B2, “Method for inducing a TRIF-bias” (priority 2008, dated 2014).

Entries after “also recorded” stand apart in the source; their conditions may differ.

Experiment [1] has as its system MonoMac6 (MM6) cells. Nature of the experiment: NFκB nuclear translocation in MonoMac6 cells (ImageStream). The class given is cell-based, human. The text has this: MonoMac6 Cells in exponential growth are stimulated with increasing concentrations of AGP diluted in 2% glycerol vehicle for the indicated time points. Immediately fixed cells (in 2% paraformalin overnight) are stained with the primary antibodies, anti-NFκB(p65) (SantaCruz Biotechnology, SantaCruz, Calif.) and anti-IRF3 (BD Biosciences, San Jose, Calif.), in permeabilization buffer (PBS, 2% FBS, 0.1% TritonX) followed by secondary antibodies, anti-Rabbit FITC (Jackson Labs, Bar Harbor, Me.), anti-mouse PE (BD Biosciences, San Jose, Calif.). Similarity scores of signaling protein localization with the nuclear stain DRAQ5 (Alexis Biochemicals (San Diego, Calif.) are used for ImageStream analysis of Nuclear Translocation as previously described {George, 2006 32669/id}. A minimum of 3000 cells are collected and analyzed for each condition tested.
Interferon […] Factor-3 (IRF-3) is a transcription factor activated downstream of the TRIF-dependent TLR4 signaling pathway (Yamamoto et al. 640-43). IRF-3 phosphorylation leads to IRF-3 dimerization, nuclear translocation, and induction of transcription of Type I interferon (IFNβ) and interferon-inducible genes (Honda, Takaoka, and Taniguchi 349-60; Tailor, Tamura, and Ozato 134-40). The ImageStream is capable of measuring nuclear translocation of both NFκB and IRF-3 by quantification of co-localization between the labeled transcription factors and the nucleus of cells stained with a nucleus-specific dye ([…]) (Beum et al. 90-99; George et al. 117-29; Arechiga et al. 7800-04).
In order to compare signaling initiated by CRX-527 and CRX-547, the induction of nuclear translocation of NFκB and IRF-3 by CRX-527 and CRX-547 treatment is compared in the human monocytic cell line, MonoMac6 (MM6) using ImageStream analysis.
To determine whether CRX-547 is able to antagonize NFκB nuclear translocation in cells treated with constant CRX-527, MM6 cells are stimulated for 20 minutes, 35 minutes and 2 hrs with increasing doses of CRX-547 (FIG. 12). When AGPs are added at the same time, CRX-547 antagonized NFκB nuclear translocation induced by CRX-527 at the highest doses. When CRX-547 is constant and spiked with CRX-527 into the assay, CRX-527 stimulation is able to overcome the maximal effect of NFκB nuclear translocation with CRX-547 alone.

The test system of experiment [2] is human primary monocytes. In words: Western blot of human primary monocytes (IRAK-1, IRF-3). The experiment is classed as cell-based. The settings on record: Western blot time course. As for the experimental part:
(§1) For Western blot and phospho-Western blot protein analysis, cells are lysed with Cell Lysis Buffer (Cell Signaling Technology, Danvers, Mass.) with Protease Inhibitor Cocktail (Sigma, St. Louis Mo.). Western Blot on PVDF membranes (Millipore) is performed using standard methods. Bands are detected with ECL Advance Western Blot kit (GE Healthcare, Piscataway, N.J.). Secondary Anti-Rabbit HRP antibody is obtainable from KPL, (Gaithersburg, Md.). Anti-βactin, anti-IRF-3, anti-phospho-IRF-3 (Ser396) and anti-IRAK1 antibodies are obtained from Cell Signaling Technology (Danvers, Mass.).
Degradation of the Serine/Threonine Kinase, IRAK-1, occurs downstream of MyD88-dependent TLR4 signaling (Hatao et al, 260-64; Neumann et al. 1089-94), while TRIF-dependent TLR4 signaling results in IRF-3 activation (Yamamoto et al. 6668-72; Yamamoto et al. 640-43). Here, human primary monocytes are stimulated with either CRX-547 or CRX-527 for the indicated times, and cellular lysates are analyzed by Western Blot for the levels of the MyD88 pathway-activated kinase, IRAK-1, and the TRIF pathway-activated transcription factor, IRF-3 (phospho-IRF-3 and total IRF-3). The levels of β-actin is used as the loading control.

The nature of experiment [3]: Induction of serum cytokines/chemokines in mice. The class given is in vivo, mouse. The settings on record: C57BL/6 mice, 2 or 6 hours post injection. How it is done: Female BALB/c or C57B1/6 mice are obtained from Charles River Laboratories, USA, and are 7 to 9 weeks of age when the experiments are initiated. Mice are injected intraperitoneally with 200 uL of agonist in vehicle (0.2% glycerol) or vehicle alone. Serum samples are drawn at 2 or 6 hours post-injection and are tested for induction of cytokines/chemokines by multiplex sandwich ELISA (Invitrogen) on the Luminex platform. All animals are used in accordance with guidelines established by the Public Health Service and the Institutional Animal Care and Use Committee at GlaxoSmithKline Biologicals, Hamilton, Mont.
To ensure that this response is not specific to BALB/c mice, a similar test of serum cytokine induction in C57BL/6 mice is carried out. (FIG. 16). The kinetics (induction at 2 or 6 hours post injection) and magnitude of cytokine induction are similar for CRX-527 and CRX-547 for both MyD88-dependent (TNFα, IL-10) and TRIP-dependent (RANTES, IP-10, MIG) cytokines/chemokines, although the relative induction by CRX-547 is slightly less for select cytokines than that seen in BALB/c (not shown). […]

For experiment [4], the system named is RAW264.7 cells. Nature of the experiment: Western blot of signaling proteins in RAW264.7 cells. The experiment is classed as cell-based, mouse. The settings on record: 10 ng/ml, PMA pre-activated. As for the experimental part:
as §1
To determine whether the phosphorylation (activation) status of key protein signaling molecules in the TRIF versus MyD88 in RAW264.7 cells, cells are pre-activated with 10^−7M PMA) then stimulated with 10 ng/ml of the AGPs. Cellular lysates are prepared at 0, 15 m, 30 m, 45 m, 60 m, 120 m, 240 m, Similar to results in MM6 cells, IκBα degradation is faster after stimulation with CRX-527 compared to CRX-547 (FIG. 29). […] The increased reponsiveness of these cello could be due to the pre-activation with PMA, known to increase the maturation state of monocytic cells. CRX-547 induces expression of Phospho-IκBα and Phospho-IRF3. IRF3 is induced through TRIF mediated signaling. The amount of total IRF3 protein is also higher in the cells treated with CRX-547.

In the case of `CCCCCCCCCCCC(CC(=O)NC(COC1OC(CO)C(OP(=O)(O)O)C(OC(=O)CC(CCCCCCCCCCC)OC(=O)CCCCCCCCC)C1NC(=O)CC(CCCCCCCCCCC)OC(=O)CCCCCCCCC)C(=O)O)OC(=O)CCCCCCCCC.CCN(CC)CC` (stereo not drawn) [CRX-527], the “earliest NFκB nuclear translocation post-stimulation” value in experiment [1] (MM6 cells) is at most 5 min. The NFκB nuclear translocation in experiment [1] (MM6 cells, by thirty minutes) was around 100%. Moreover, the “IRAK-1 level (MyD88 pathway)” value in experiment [2] is “rapid decrease; also recorded: greater degradation”. The “kinetics and magnitude of serum cytokine induction (TNFα, IL-10, RANTES, IP-10, MIG)” value in experiment [3] is recorded as “similar”. Moreover, the IκBα degradation entry in experiment [4] (CRX-527 compared to CRX-547) was “faster”.

As for `CCCCCCCCCCCC(CC(=O)NC(COC1OC(CO)C(OP(=O)(O)O)C(OC(=O)CC(CCCCCCCCCCC)OC(=O)CCCCCCCCC)C1NC(=O)CC(CCCCCCCCCCC)OC(=O)CCCCCCCCC)C(=O)O)OC(=O)CCCCCCCCC.CCN(CC)CC` (stereo not drawn) [CRX-547], the “effect on NFκB nuclear translocation induced by CRX-527” value in experiment [1] (MM6, AGPs added at the same time, highest doses of CRX-547) is reported as “antagonized”. Also, the “NFκB nuclear translocation, threshold never exceeded” value in experiment [1] (MM6 cells, 5-120 minutes) was “around 50%”. Besides, in experiment [2], the “IRAK-1 level (MyD88 pathway)” value is “delayed and reduced degradation”. Also, in experiment [3], the “kinetics and magnitude of serum cytokine induction (TNFα, IL-10, RANTES, IP-10, MIG)” value was “similar”. Moreover, in experiment [4] (performed once), the IRF3 phosphorylation result is “higher degree”, the IκBα phosphorylation result is listed as “higher degree” and the “amount of total IRF3 protein” value is “higher”.
